Our source for the IC50 values is patent US8017612B2, “Piperazine compound and use thereof as a HCV polymerase inhibitor” (priority 2006, dated 2011).

Test [1] deals with T1, HCV polymerase (NS5B) type 1b (Hepatitis C virus genotype 1b, UniProt P26663).
T1 construct: a region encoding NS5B (J Virol 1991 March, 65(3), 1105-13, 544 amino acids after deletion of 47 amino acids on the C-terminal); 6xHis (C); made in house; host or cells: Escherichia coli
Description: Assay of enzyme (HCV polymerase) inhibitory activity, type 1b enzyme. The class given is biochemical, HCV BK strain (type 1b). Summed up: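 Rxn: NS5B 1b (BK, ΔC47, His6) 0.5 μg/ml; substrate RNA 5 μg/ml; ATP/GTP/CTP 50 μM, UTP 2 μM + [5,6-3H]UTP; 20 mM Tris pH 7.5, 5 mM MgCl2, 50 mM NaCl, 1 mM EDTA/DTT. 25 °C, 60 min. Stop with TCA/pyrophosphate, filter, scintillation count; IC50 vs. untreated.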

The target of test [2] is T2, HCV polymerase (NS5B) type 1a (Hepatitis C virus genotype 1a, UniProt P26664).
T2 construct: made in house; host or cells: Escherichia coli (by the 'similar method' of the 1b enzyme)
Description: Assay of enzyme (HCV polymerase) inhibitory activity, type 1a enzyme. Format: biochemical, HCV type 1a (cloned from the blood of patients). Summed up: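 NS5B Δ47 C-term His6 (type 1a, 1.5 μg/ml); substrate RNA 5 μg/ml; ATP/GTP/CTP 50 μM, UTP 2 μM + [5,6-3H]UTP; Tris pH 7.5, MgCl2 5 mM; 25° C, 60 min. TCA/pyrophosphate stop, GF/B filter, scintillation. IC50 vs no-compound control.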

Setting [3] is: HCV polymerase inhibitory activity (IC50), 1b, type 1b enzyme 0.5 μg/ml, 25° C., 60 min.
Where [4] appears, read: HCV polymerase inhibitory activity (IC50), 1a, type 1a enzyme 1.5 μg/ml, 25° C., 60 min.
Setting [5] is: HCV polymerase inhibitory activity IC50, 1b, type 1b enzyme.
The mark [6] stands for this setting: HCV polymerase inhibitory activity IC50, 1a, type 1a enzyme.

Turning to `CC(C)c1ccc(CNC(=O)[C@H]2CN(C(=O)Nc3ccccc3)CCN2S(=O)(=O)c2ccc(C(F)(F)F)cc2)cc1` [Example 178, (R)-4-(4-trifluoromethyl-benzenesulfonyl)-piperazine-1,3-dicarboxylic acid 3-(4-isopropyl-benzylamide) 1-phenylamide], the IC50 in test [1] (setting [3]) and in test [2] (setting [4]) was 100 to 1000 nM throughout.

In the case of `COc1ccc(S(=O)(=O)N2CCN(C(C)=O)C[C@@H]2C(=O)NCc2ccc(C(C)C)cc2)cc1CCC(=O)O` [Example 222, 3-{5-[(R)-4-acetyl-2-(4-isopropyl-benzylcarbamoyl)-piperazine-1-sulfonyl]-2-methoxy-phenyl}-propionic acid], the IC50 in test [1] (setting [3]) and in test [2] (setting [4]) was 100 to 1000 nM throughout.

Consider `CC(=O)N1CCN(S(=O)(=O)c2ccc(C(C)C)cc2)C(C(=O)NCc2ccc(C(C)C)cc2)C1` (stereo not shown) [Example 117, 4-acetyl-1-(4-isopropyl-benzenesulfonyl)-piperazine-2-carboxylic acid 4-isopropyl-benzylamide], for which the IC50 in test [1] (setting [3]) and in test [2] (setting [4]) was 100 to 1000 nM each time.

Regarding `CC(C)c1ccc(CNC(=O)[C@H]2CN(C(=O)CCCCC(=O)O)CCN2S(=O)(=O)c2ccc(C(F)(F)F)cc2)cc1` [Example 213, 6-[(R)-3-(4-isopropyl-benzylcarbamoyl)-4-(4-trifluoromethyl-benzenesulfonyl)-piperazin-1-yl]-6-oxo-hexanoic acid], the IC50 in test [1] (setting [3]) and in test [2] (setting [4]) was 100 to 1000 nM throughout.

`Cc1nc(N2CCN(S(=O)(=O)c3ccc(OC(F)(F)F)cc3)[C@@H](C(=O)NCc3ccc(C(C)C)cc3)C2)sc1C(=O)NCCC(=O)OC(C)(C)C` [Example 359, 3-({2-[(R)-3-(4-isopropyl-benzylcarbamoyl)-4-(4-trifluoromethoxy-benzenesulfonyl)-piperazin-1-yl]-4-methyl-thiazole-5-carbonyl}-amino)-propionic acid tert-butyl ester]: the IC50 in test [1] (setting [3]) and in test [2] (setting [4]) was < 100 nM in each case.

For `O=C(NCc1ccc(OC(F)(F)F)cc1)[C@H]1CN(c2nc3cn[nH]c(=O)c3s2)CCN1S(=O)(=O)c1ccc(Cl)s1` [Example 850, (R)-1-(5-chloro-thiophene-2-sulfonyl)-4-(7-oxo-6,7-dihydro-thiazolo[4,5-d]pyridazin-2-yl)-piperazine-2-carboxylic acid 4-trifluoromethoxy-benzylamide], the IC50 in test [1] (setting [5]) and in test [2] (setting [6]) was < 100 nM throughout.

For `COCC1(c2ncc3sc(N4CCN(S(=O)(=O)c5ccc(OC(F)(F)F)cc5)[C@@H](C(=O)NCc5ccc(OC(F)(F)F)cc5)C4)nc3n2)CC1` [Example 1076, (R)-4-[5-(1-methoxymethyl-cyclopropyl)-thiazolo[4,5-d]pyrimidin-2-yl]-1-(4-trifluoromethoxy-benzenesulfonyl)-piperazine-2-carboxylic acid 4-trifluoromethoxy-benzylamide], the IC50 in test [1] (setting [5]) and in test [2] (setting [6]) was < 100 nM each time.

As for `CCC(F)(F)c1ccc(CNC(=O)[C@H]2CN(c3ccncn3)CCN2S(=O)(=O)c2ccc(OC(F)(F)F)cc2)cc1` [Example 580, (R)-4-pyrimidin-4-yl-1-(4-trifluoromethoxy-benzenesulfonyl)-piperazine-2-carboxylic acid 4-(1,1-difluoro-propyl)-benzylamide], the IC50 in test [1] (setting [3]) and in test [2] (setting [4]) was < 100 nM each time.

Consider `CC(=O)N1CCN(S(=O)(=O)c2ccc(CC3CC3)cc2)[C@@H](C(=O)NCc2ccc(C(C)C)cc2)C1` [Example 428, (R)-4-acetyl-1-(4-cyclopropylmethyl-benzenesulfonyl)-piperazine-2-carboxylic acid 4-isopropyl-benzylamide], for which the 50% inhibitory concentration (IC50) in test [1] (setting [3]) and in test [2] (setting [4]) was < 100 nM in each case.

As for `CCOC(=O)CCCCCC(=O)N1CCN(S(=O)(=O)c2ccc(C(F)(F)F)cc2)[C@@H](C(=O)NCc2ccc(C(C)C)cc2)C1` [Example 316, 7-[(R)-3-(4-isopropyl-benzylcarbamoyl)-4-(4-trifluoromethyl-benzenesulfonyl)-piperazin-1-yl]-7-oxo-heptanoic acid ethyl ester], the IC50 in test [1] (setting [3]) and in test [2] (setting [4]) was 100 to 1000 nM throughout.

Consider `CCC(F)(F)c1ccc(CNC(=O)[C@H]2CN(C(=O)Cn3nnnc3C)CCN2S(=O)(=O)c2ccc(OC(F)(F)F)cc2)cc1` [Example 467, (R)-4-[2-(5-methyl-tetrazol-1-yl)-acetyl]-1-(4-trifluoromethoxy-benzenesulfonyl)-piperazine-2-carboxylic acid 4-(1,1-difluoro-propyl)-benzylamide], for which the results for the IC50 in test [1] (setting [3]) and in test [2] (setting [4]) were 100 to 1000 nM and < 100 nM, respectively.

Consider `O=C(NCc1ccc(OC(F)F)cc1)[C@H]1CN(c2nc3nc(C4CC4)ncc3s2)CCN1S(=O)(=O)c1ccc(OC(F)F)cc1` [Example 1014, (R)-4-(5-cyclopropyl-thiazolo[4,5-d]pyrimidin-2-yl)-1-(4-difluoromethoxy-benzenesulfonyl)-piperazine-2-carboxylic acid 4-difluoromethoxy-benzylamide], for which the IC50 in test [1] (setting [5]) and in test [2] (setting [6]) was < 100 nM throughout.

For `COc1nc(CNC(=O)[C@H]2CN(C(C)=O)CCN2S(=O)(=O)c2ccc(OC(F)(F)F)cc2)ccc1C` [Example 649, (R)-4-acetyl-1-(4-trifluoromethoxy-benzenesulfonyl)-piperazine-2-carboxylic acid (6-methoxy-5-methyl-pyridin-2-ylmethyl)-amide], the IC50 in test [1] (setting [3]) and in test [2] (setting [4]) was > 1000 nM each time.

As for `O=C(NCc1ccc(OC(F)(F)F)cc1)[C@H]1CN(c2ccn3ncnc3n2)CCN1S(=O)(=O)c1ccc(OC(F)(F)F)cc1` [Example 750, (R)-4-[1,2,4]triazolo[1,5-a]pyrimidin-5-yl-1-(4-trifluoromethoxy-benzenesulfonyl)-piperazine-2-carboxylic acid 4-trifluoromethoxy-benzylamide], the IC50 in test [1] (setting [5]) and in test [2] (setting [6]) was < 100 nM throughout.

As to `Cc1nc(N2CCN(S(=O)(=O)c3ccc(OC(F)(F)F)cc3)[C@@H](C(=O)NCc3ccccc3)C2)sc1C(=O)O` [Example 401, 2-[(R)-3-benzylcarbamoyl-4-(4-trifluoromethoxy-benzenesulfonyl)-piperazin-1-yl]-4-methyl-thiazole-5-carboxylic acid], the IC50 in test [1] (setting [3]) was 100 to 1000 nM; in test [2] (setting [4]) it was > 1000 nM.

For the molecule `COC(=O)c1sc(N2CCN(S(=O)(=O)c3ccc(C(F)(F)F)cc3)[C@@H](C(=O)NCc3ccc(C(C)C)cc3)C2)nc1C` [Example 254, 2-[(R)-3-(4-isopropyl-benzylcarbamoyl)-4-(4-trifluoromethyl-benzenesulfonyl)-piperazin-1-yl]-4-methyl-thiazole-5-carboxylic acid methyl ester], the IC50 was < 100 nM in test [1] (setting [3]) and 100 to 1000 nM in test [2] (setting [4]).

Regarding `CCCc1ccc(CNC(=O)[C@H]2CN(C(=O)Nc3ccccc3)CCN2S(=O)(=O)c2ccc(OC(F)(F)F)cc2)cc1` [Example 830, (R)-4-(4-trifluoromethoxy-benzenesulfonyl)-piperazine-1,3-dicarboxylic acid 1-phenylamide 3-(4-propyl-benzylamide)], the IC50 in test [1] (setting [5]) was < 100 nM; in test [2] (setting [6]) it was 100 to 1000 nM.
